Tests used:
Test in all cases: relative viability (nuclei count vs DMSO), 5 days (fraction); higher = more cells survive
A-427 = tested on: A-427
Summary of the method: (§1)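 Lung cancer cell lines in 1536-well plates were dosed by pin tool the day after seeding, either with one drug alone or with a fixed anchor-drug dose plus five library-drug doses (not always all listed) in √10 steps. After 5 days, cells were fixed and their nuclei stained in one step (final 0.05% Triton X-100, 1% formaldehyde, 1 ug/ml Hoechst), then counted on 4× images. Relative viability is the nuclei count in treated wells divided by that in vehicle wells. Values are medians of duplicate plates.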

ABC-1 = tested on: ABC-1
Summary of the method: as §1

COR-L23 = tested on: COR-L23
Summary of the method: as §1

EMC-BAC-2 = tested on: EMC-BAC-2
Summary of the method: as §1

HARA = tested on: HARA
Summary of the method: as §1

HOP-62 = tested on: HOP-62
Summary of the method: as §1

LK-2 = tested on: LK-2
Summary of the method: as §1

LXF-289 = tested on: LXF-289
Summary of the method: as §1

NCI-H1792 = tested on: NCI-H1792
Summary of the method: as §1

NCI-H1944 = tested on: NCI-H1944
Summary of the method: as §1

NCI-H1993 = tested on: NCI-H1993
Summary of the method: as §1

NCI-H2009 = tested on: NCI-H2009
Summary of the method: as §1

NCI-H2170 = tested on: NCI-H2170
Summary of the method: as §1

NCI-H2228 = tested on: NCI-H2228
Summary of the method: as §1

NCI-H3122 = tested on: NCI-H3122
Summary of the method: as §1

NCI-H596 = tested on: NCI-H596
Summary of the method: as §1

NCI-H727 = tested on: NCI-H727
Summary of the method: as §1

PC-3 [JPC-3] = tested on: PC-3 [JPC-3]
Summary of the method: as §1

SK-LU-1 = tested on: SK-LU-1
Summary of the method: as §1

SK-MES-1 = tested on: SK-MES-1
Summary of the method: as §1

SW 1573 = tested on: SW 1573
Summary of the method: as §1

SMILES: Oc1nc(-c2ccc(C(F)(F)F)cc2)nc2c1CSCC2 [XAV939] + C[C@@H](Oc1cc(-c2cnn(C3CCNCC3)c2)cnc1N)c1c(Cl)ccc(F)c1Cl [Crizotinib] (partner 1 µM)
- relative viability (A-427; first compound 0.08 µM): 0.918
- relative viability (A-427; first compound 0.253 µM): 0.909
- relative viability (A-427; first compound 0.8 µM): 0.794
- relative viability (A-427; first compound 2.53 µM): 0.729
- relative viability (ABC-1; first compound 0.08 µM): 1.32
- relative viability (ABC-1; first compound 0.253 µM): 0.905
- relative viability (ABC-1; first compound 0.8 µM): 0.908
- relative viability (ABC-1; first compound 2.53 µM): 0.603
- relative viability (COR-L23; first compound 0.08 µM): 0.77
- relative viability (COR-L23; first compound 0.253 µM): 0.675
- relative viability (COR-L23; first compound 0.8 µM): 0.671
- relative viability (COR-L23; first compound 2.53 µM): 0.555
- relative viability (EMC-BAC-2; first compound 0.08 µM): 0.821
- relative viability (EMC-BAC-2; first compound 0.253 µM): 0.63
- relative viability (EMC-BAC-2; first compound 0.8 µM): 0.623
- relative viability (EMC-BAC-2; first compound 2.53 µM): 0.438
- relative viability (HARA; first compound 0.08 µM): 1.14
- relative viability (HARA; first compound 0.253 µM): 0.785
- relative viability (HARA; first compound 0.8 µM): 1.05
- relative viability (HARA; first compound 2.53 µM): 0.932
- relative viability (HOP-62; first compound 0.08 µM): 0.972
- relative viability (HOP-62; first compound 0.253 µM): 0.862
- relative viability (HOP-62; first compound 0.8 µM): 0.906
- relative viability (HOP-62; first compound 2.53 µM): 0.727
- relative viability (LK-2; first compound 0.08 µM): 0.178
- relative viability (LK-2; first compound 0.253 µM): 0.224
- relative viability (LK-2; first compound 0.8 µM): 0.181
- relative viability (LK-2; first compound 2.53 µM): 0.207
- relative viability (LXF-289; first compound 0.08 µM): 0.833
- relative viability (LXF-289; first compound 0.253 µM): 0.754
- relative viability (LXF-289; first compound 0.8 µM): 0.829
- relative viability (LXF-289; first compound 2.53 µM): 0.874
- relative viability (NCI-H1792; first compound 0.08 µM): 0.994
- relative viability (NCI-H1792; first compound 0.253 µM): 0.896
- relative viability (NCI-H1792; first compound 0.8 µM): 0.977
- relative viability (NCI-H1792; first compound 2.53 µM): 0.902
- relative viability (NCI-H1944; first compound 0.08 µM): 1.32
- relative viability (NCI-H1944; first compound 0.253 µM): 1.08
- relative viability (NCI-H1944; first compound 0.8 µM): 1.03
- relative viability (NCI-H1944; first compound 2.53 µM): 0.959
- relative viability (NCI-H1993; first compound 0.8 µM): 0.85
- relative viability (NCI-H1993; first compound 2.53 µM): 0.768
- relative viability (NCI-H2009; first compound 0.08 µM): 1.12
- relative viability (NCI-H2009; first compound 0.253 µM): 1.04
- relative viability (NCI-H2009; first compound 0.8 µM): 1.01
- relative viability (NCI-H2009; first compound 2.53 µM): 0.96
- relative viability (NCI-H2170; first compound 0.08 µM): 1.28
- relative viability (NCI-H2170; first compound 0.253 µM): 1.01
- relative viability (NCI-H2170; first compound 0.8 µM): 1.02
- relative viability (NCI-H2170; first compound 2.53 µM): 0.921
- relative viability (NCI-H2228; first compound 0.08 µM): 0.431
- relative viability (NCI-H2228; first compound 0.253 µM): 0.438
- relative viability (NCI-H2228; first compound 0.8 µM): 0.464
- relative viability (NCI-H2228; first compound 2.53 µM): 0.398
- relative viability (NCI-H3122; first compound 0.08 µM): 0.286
- relative viability (NCI-H3122; first compound 0.253 µM): 0.27
- relative viability (NCI-H3122; first compound 0.8 µM): 0.238
- relative viability (NCI-H3122; first compound 2.53 µM): 0.234
- relative viability (NCI-H596; first compound 0.08 µM): 1.12
- relative viability (NCI-H596; first compound 0.253 µM): 0.955
- relative viability (NCI-H596; first compound 0.8 µM): 1.06
- relative viability (NCI-H596; first compound 2.53 µM): 0.93
- relative viability (NCI-H727; first compound 0.08 µM): 0.812
- relative viability (NCI-H727; first compound 0.253 µM): 0.566
- relative viability (NCI-H727; first compound 0.8 µM): 0.722
- relative viability (NCI-H727; first compound 2.53 µM): 0.765
- relative viability (PC-3 [JPC-3]; first compound 0.08 µM): 0.936
- relative viability (PC-3 [JPC-3]; first compound 0.253 µM): 0.903
- relative viability (PC-3 [JPC-3]; first compound 0.8 µM): 0.966
- relative viability (PC-3 [JPC-3]; first compound 2.53 µM): 0.92
- relative viability (SK-LU-1; first compound 0.08 µM): 0.929
- relative viability (SK-LU-1; first compound 0.253 µM): 0.809
- relative viability (SK-LU-1; first compound 0.8 µM): 0.936
- relative viability (SK-LU-1; first compound 2.53 µM): 0.823
- relative viability (SK-MES-1; first compound 0.08 µM): 1.02
- relative viability (SK-MES-1; first compound 0.253 µM): 0.934
- relative viability (SK-MES-1; first compound 0.8 µM): 0.882
- relative viability (SK-MES-1; first compound 2.53 µM): 0.842
- relative viability (SW 1573; first compound 0.08 µM): 0.948
- relative viability (SW 1573; first compound 0.253 µM): 0.85
- relative viability (SW 1573; first compound 0.8 µM): 0.757
- relative viability (SW 1573; first compound 2.53 µM): 0.646
